Drawing on BindingDB's records for PubMed 7562497 (R. W. Johnson Pharmaceutical Research Institute, 1995), this text covers Ki for 14 molecules.

Where “and” joins values, the source holds several entries; their conditions need not be identical. Equal entries are not always repeated.

The target in one test is Mu-type opioid receptor (Rattus norvegicus, UniProt P33535).
In test [1] the target is Sodium-dependent serotonin transporter (Rattus norvegicus, UniProt P31652).
Test [2] concerns the target Kappa-type opioid receptor (Rattus norvegicus, UniProt P34975).
In test [3] the target is Norepinephrine transporter (Rattus norvegicus, UniProt Q9JIA2).

Sequence of Sodium-dependent serotonin transporter (P31652 whole entry): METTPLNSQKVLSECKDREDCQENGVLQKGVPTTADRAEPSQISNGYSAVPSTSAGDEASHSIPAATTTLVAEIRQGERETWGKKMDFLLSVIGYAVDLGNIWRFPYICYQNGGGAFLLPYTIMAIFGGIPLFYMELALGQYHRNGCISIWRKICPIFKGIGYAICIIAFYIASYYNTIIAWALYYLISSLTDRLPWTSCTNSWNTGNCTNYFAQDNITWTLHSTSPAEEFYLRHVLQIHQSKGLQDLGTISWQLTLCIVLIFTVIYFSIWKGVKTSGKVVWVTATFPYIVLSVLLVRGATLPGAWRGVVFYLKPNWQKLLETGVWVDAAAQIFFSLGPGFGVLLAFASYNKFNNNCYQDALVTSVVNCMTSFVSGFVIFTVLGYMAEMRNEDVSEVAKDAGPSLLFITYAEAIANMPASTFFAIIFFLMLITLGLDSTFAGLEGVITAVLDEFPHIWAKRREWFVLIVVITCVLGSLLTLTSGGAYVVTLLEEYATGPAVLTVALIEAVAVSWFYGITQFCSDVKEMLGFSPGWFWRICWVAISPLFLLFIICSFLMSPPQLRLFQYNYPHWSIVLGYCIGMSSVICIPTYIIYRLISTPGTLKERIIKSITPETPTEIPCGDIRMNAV
Sequence of Mu-type opioid receptor (P33535 whole entry): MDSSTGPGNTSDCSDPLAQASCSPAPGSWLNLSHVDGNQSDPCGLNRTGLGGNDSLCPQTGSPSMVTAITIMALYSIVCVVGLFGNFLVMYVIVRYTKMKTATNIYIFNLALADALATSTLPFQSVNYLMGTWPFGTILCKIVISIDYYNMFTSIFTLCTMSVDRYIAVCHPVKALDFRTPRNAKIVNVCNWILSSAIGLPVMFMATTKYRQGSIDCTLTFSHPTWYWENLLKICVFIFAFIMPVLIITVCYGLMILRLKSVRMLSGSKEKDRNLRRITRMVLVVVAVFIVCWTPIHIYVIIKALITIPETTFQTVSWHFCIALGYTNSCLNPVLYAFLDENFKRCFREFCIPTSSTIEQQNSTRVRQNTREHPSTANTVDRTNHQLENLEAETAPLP
Sequence of Kappa-type opioid receptor (P34975 whole entry): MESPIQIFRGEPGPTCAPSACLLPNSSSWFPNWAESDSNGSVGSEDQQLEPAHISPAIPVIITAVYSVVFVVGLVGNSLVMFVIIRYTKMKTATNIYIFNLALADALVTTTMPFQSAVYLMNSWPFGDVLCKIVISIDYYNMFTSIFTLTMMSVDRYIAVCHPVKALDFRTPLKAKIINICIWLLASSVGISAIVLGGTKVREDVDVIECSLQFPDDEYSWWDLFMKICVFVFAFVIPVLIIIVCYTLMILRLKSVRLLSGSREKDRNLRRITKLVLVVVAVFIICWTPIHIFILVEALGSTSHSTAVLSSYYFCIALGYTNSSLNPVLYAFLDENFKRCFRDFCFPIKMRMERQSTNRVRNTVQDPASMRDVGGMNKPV

Take `c1cc2c(c(NC3=NCCN3)c1)CCCC2` [NSC_19472]: the inhibition constant (Ki) is 2120 nM and 1330 nM and > 10000 nM at Mu-type opioid receptor; 992 nM and 528 nM and 2350 nM in test [1]; > 10000 nM in test [2]; 785 nM and 2510 nM and 432 nM in test [3].
For the molecule `C[C@@H](NC(=O)[C@@H](N)Cc1ccc(O)cc1)C(=O)NCC(=O)N(C)[C@@H](Cc1ccccc1)C(=O)NCCO` [[tyrosyl-3,5-3H(N)]-D-Ala2-Mephe4-glyol5-enkephalin], the Ki was > 10000 nM in test [1], 210 nM in test [2] and > 10000 nM in test [3].
Turning to `C=CCN1CC[C@]23c4c5ccc(O)c4O[C@H]2C(=O)CC[C@@]3(O)[C@H]1C5` [[17-(2,3-3H-2-propenyl)]-4,5a-epoxy-3,14-dihydroxymorphinan-6-one], the inhibition constant (Ki) in test [1] and in test [3] was > 10000 nM throughout.
`COc1ccc2c(c1)C13CCCCC1C(C2)N(C)CC3` (stereo not drawn) [Levomethorpan]: the Ki in test [3] was 240 nM and 179 nM.
Turning to `O=C1CC[C@@]2(O)[C@H]3Cc4ccc(O)c5c4[C@@]2(CCN3CC2CC2)[C@H]1O5` [(1S,5R,13R,17S)-4-(cyclopropylmethyl)-10,17-dihydroxy-12-oxa-4-azapentacyclo[9.6.1.0^{1,13}.0^{5,17}.0^{7,18}]octadeca-7(18),8,10-trien-14-one], the inhibitory constant (Ki) in test [1] and in test [3] was > 10000 nM throughout.
On to `CO[C@@]12CC[C@@]3(C[C@@H]1[C@@](C)(O)C(C)(C)C)[C@H]1Cc4ccc(O)c5c4[C@@]3(CCN1CC1CC1)[C@H]2O5` [BUPRENORPHINE], for which the inhibition constant Ki in test [1] and in test [3] was > 10000 nM each time.
As for `COc1ccc2c3c1OC1C(O[Si](C)(C)C)C=CC4C(C2)N(C)CCC341` (stereo not drawn) [CAS_553916], the Ki is 11.1 nM on Mu-type opioid receptor, > 10000 nM in test [1], 501 nM in test [2] and > 10000 nM in test [3].
On to `CCC(OC(C)=O)C(CC(C)N(C)C)(c1ccccc1)c1ccccc1` (stereo not drawn), for which the Ki in test [3] is > 10000 nM.
For `CN1CCC23CCCCC2C1Cc1ccc(O)cc13` (stereo not drawn) [17-methyl-17-azatetracyclo[7.5.3.0^{1,10}.0^{2,7}]heptadeca-2(7),3,5-trien-4-ol], the inhibition constant Ki was 401 nM and 86.3 nM in test [1]; 340 nM and 1210 nM in test [3].
With `CCC(=O)O[C@](Cc1ccccc1)(c1ccccc1)[C@H](C)CN(C)C` [PROPOXYPHENE], the Ki at Mu-type opioid receptor is 34.5 nM; in test [1], > 10000 nM; in test [2], 1220 nM; in test [3], > 10000 nM.
Take `C=CCN1CC[C@]23CCCCC2[C@H]1Cc1ccc(O)cc13` (stereo partly drawn) [Levallorphan]: the inhibition constant (Ki) in test [1] is > 10000 nM and 7950 nM.
As to `CC1(C)SSC(C)(C)[C@@H](NC(=O)[C@@H](N)Cc2ccc(O)cc2)C(=O)NCC(=O)N[C@@H](Cc2ccccc2)C(=O)N[C@H]1C(=O)O` [(4S,7S,13S)-13-[(2S)-2-amino-3-(4-hydroxyphenyl)propanamido]-7-benzyl-3,3,14,14-tetramethyl-6,9,12-trioxo-1,2-dithia-5,8,11-triazacyclotetradecane-4-carboxylic acid], the Ki in test [1], in test [2] and in test [3] was > 10000 nM throughout.
With `COc1ccc2c3c1O[C@H]1C(=O)CCC4(O)[C@@H](C2)N(C)CC[C@]314` (stereo partly drawn) [Oxycodone], the inhibition constant Ki in test [1] and in test [3] was > 10000 nM in each case.
For `COc1ccc2c3c1OC1C(O)C=CC4C(C2)N(C)CCC341` (stereo not drawn) [NSC_223652], the Ki in test [1] and in test [3] was > 10000 nM throughout.
